Source: ChEMBL document CHEMBL4393656, “Cationic biaryl 1,2,3-triazolyl peptidomimetic amphiphiles targeting Clostridioides (Clostridium) difficile: Synthesis, antibacterial evaluation and an in vivo C. difficile infection model” (Eur J Med Chem, 2019)
Values after ≈ are worked out from the molar mass of the structure shown. Active and inactive are the calls of the source. No cut-off for these calls is given here.

What was measured:
[1] = Haemolytic activity in sheep erythrocytes assessed as induction of haemolysis at 50 ug/ml incubated for 2 hrs relative to control; format: cell-based, Ovis aries, Erythrocyte; details: read-out: Activity
Acinetobacter baumannii = assay: Growth inhibition of Acinetobacter baumannii ATCC 19606 incubated for 18 hrs without shaking by absorbance based monochromator plate reader analysis; format: organism-based, ATCC 19606 = CIP 70.34 = JCM 6841; details: in vitro
Klebsiella pneumoniae = assay: Growth inhibition of Klebsiella pneumoniae ATCC 700603 incubated for 18 hrs; format: organism-based
Clostridioides difficile [2] = assay: Antibacterial activity against Clostridium difficile ATCC 700057 incubated for 2 to 4 hrs in pre-reduced brucella broth supplemented with haemin/vitamin K and further incubation in anaerobic condition for 48 hrs; format: functional
Pseudomonas aeruginosa = assay: Growth inhibition of Pseudomonas aeruginosa ATCC 27853 incubated for 18 hrs; format: organism-based
[3] = Haemolytic activity in sheep erythrocytes assessed as induction of haemolysis at 5 ug/ml incubated for 2 hrs relative to control; format: cell-based, Ovis aries, Erythrocyte; details: read-out: Activity
[4] = Cytotoxicity against HEK293 cells assessed as decrease in cell viability after 20 hrs by resazurin dye-based fluorescence assay; details: human
Streptococcus pneumoniae = assay: Growth inhibition of Streptococcus pneumoniae ATCC 49619 incubated in MHB medium with lysed horse blood and 5% CO2 for 24 hrs; format: organism-based
Clostridioides difficile [5] = assay: Antibacterial activity against Clostridium difficile NSW132 RT027 incubated for 2 to 4 hrs in pre-reduced brucella broth supplemented with haemin/vitamin K and further incubation in anaerobic condition for 48 hrs; format: functional
Enterococcus faecalis = assay: Growth inhibition of Enterococcus faecalis ATCC 29212 incubated in MHB broth for 24 hrs; format: organism-based
Staphylococcus aureus [6] = assay: Growth inhibition of Staphylococcus aureus ATCC 29213 incubated in MHB broth for 24 hrs; format: organism-based
Escherichia coli = assay: Growth inhibition of Escherichia coli ATCC 25922 incubated for 18 hrs; format: organism-based
Staphylococcus aureus [7] = assay: Growth inhibition of methicillin-resistant Staphylococcus aureus ATCC 43300 incubated for 18 hrs; format: organism-based
Staphylococcus aureus [8] = assay: Growth inhibition of methicillin resistant Staphylococcus aureus NCTC 10442 incubated in MHB medium for 24 hrs; format: organism-based
Staphylococcus aureus [9] = assay: Induction of cytoplasmic membrane depolarization in Staphylococcus aureus ATCC 29213 at 8 ug/ml by DiSC3-5 dye based fluorescence method; format: organism-based
Staphylococcus aureus [10] = assay: Induction of cytoplasmic membrane permeabilization in Staphylococcus aureus ATCC 29213 at 8 ug/ml by propidium iodide staining based fluorescence method; format: organism-based
Clostridioides difficile [11] = assay: (§1) Antibacterial activity against Clostridium difficile ribotype 027 M7404 spores infected in antibiotic cocktail-induced CDI C57BL/6J mouse model assessed as decrease in weight loss at 100 mg/kg administered via oral gavage for every 12 hrs starting from 6 hrs post-infection and measured at 24 hrs post infection; format: functional, organism-based; details: genomovar ribotype 027 M7404
Clostridioides difficile [12] = assay: as §1, with “decrease in fecal spore load at 100” for “decrease in weight loss at 100”, “post infection by heat shock based plating method” for “post infection”; format: functional, organism-based; details: genomovar ribotype 027 M7404
Clostridioides difficile [13] = assay: as §1, with “diarrhea” for “weight loss”; format: functional, organism-based; details: genomovar ribotype 027 M7404
Clostridioides difficile [14] = assay: as §1, with “protection against bacterial infection” for “decrease in weight loss”, “2 days” for “24 hrs”; format: functional, organism-based; details: genomovar ribotype 027 M7404
Clostridioides difficile [15] = assay: as §1, with “physiological appearance score” for “weight loss”; format: functional, organism-based; details: genomovar ribotype 027 M7404

| SMILES | MIC (Acinetobacter baumannii) [µg/mL] | MIC (Klebsiella pneumoniae) [µg/mL] | MIC (Clostridioides difficile [2]) [µg/mL] | MIC (Pseudomonas aeruginosa) [µg/mL] | CC50 at 20 h [4] [µg/mL] | MIC (Streptococcus pneumoniae) [µg/mL] | MIC (Clostridioides difficile [5]) [µg/mL] | MIC (Enterococcus faecalis) [µg/mL] | MIC (Staphylococcus aureus [6]) [µg/mL] | MIC (Escherichia coli) [µg/mL] | MIC (Staphylococcus aureus [7]) [µg/mL] | MIC (Staphylococcus aureus [8]) [µg/mL] | further results |
| --- | --- | --- | --- | --- | --- | --- | --- | --- | --- | --- | --- | --- | --- |
| CC(C)CCOc1ccc2ccccc2c1-c1c(OCc2cn([C@H](CCCNC(=N)N)C(=O)N[C@H](CCCCN)Cn3cc(CC4CCCCC4)nn3)nn2)ccc2ccccc12.Cl.Cl | 32 | > 32 | 8 | 32 | > 32 | 2 | 8 | 4 | 4 | > 32 |  |  | hemolysis at 2 h, 50 ug/ml [1]: 71.5%; hemolysis at 2 h, 5 ug/ml [3]: 1.8% |
| CC(C)CCOc1ccc2ccccc2c1-c1c(OCc2cn([C@H](CCCNC(=N)N)C(=O)NCCc3ccccc3)nn2)ccc2ccccc12.Cl | > 32 | > 32 | 16 | > 32 | > 32 | 16 | 64 | 4 | 8 | > 32 | 8 |  | hemolysis at 2 h, 50 ug/ml [1]: 55.2%; hemolysis at 2 h, 5 ug/ml [3]: 0.1% |
| CC(C)CCOc1ccccc1-c1ccccc1OCc1cn([C@H](CCCNC(=N)N)C(=O)N[C@H](CCCCN)Cn2cc(CCc3ccccc3)nn2)nn1.Cl.Cl | 32 | 16 | 16 | 16 | > 32 | 2 | 16 | 8 | 4 | 16 | 4 | 8 |  |
| CC(C)CCOc1ccc2ccccc2c1-c1c(OCc2cn([C@H](CCCNC(=N)N)C(=O)NCc3ccccc3)nn2)ccc2ccccc12.Cl | > 32 | > 32 | 16 | > 32 | 16.5 | 8 | 16 | 2 | 4 | > 32 | 8 | 8 |  |
| CC(C)CCOc1ccccc1-c1ccccc1OCc1cn([C@H](CCCNC(=N)N)C(=O)NCc2ccccc2)nn1.Cl | 32 | > 32 | 32 | > 32 | 16.8 | 4 | 64 | 8 | 4 | > 32 | 8 | 8 |  |
| CN[C@H](CC(C)C)C(=O)N[C@H]1C(=O)N[C@@H](CC(N)=O)C(=O)N[C@H]2C(=O)N[C@H]3C(=O)N[C@H](C(=O)N[C@H](C(=O)O)c4cc(O)cc(O)c4-c4cc3ccc4O)[C@H](O)c3ccc(c(Cl)c3)Oc3cc2cc(c3O[C@@H]2O[C@H](CO)[C@@H](O)[C@H](O)[C@H]2O[C@H]2C[C@](C)(N)[C@H](O)[C@H](C)O2)Oc2ccc(cc2Cl)[C@H]1O [VANCOMYCIN] |  |  | 0.5 (≈ 0.345 µM) |  |  | 1 (≈ 0.69 µM) | 0.5 (≈ 0.345 µM) | 4 (≈ 2.76 µM) | 1 (≈ 0.69 µM) |  | 1 (≈ 0.69 µM) | 1 (≈ 0.69 µM) | Activity (Staphylococcus aureus [9]): inactive; Activity (Staphylococcus aureus [10]): inactive |
| CC(C)CCOc1ccccc1-c1ccccc1OCc1cn(C[C@@H](CCCCN)NC(=O)[C@@H](CCCNC(=N)N)n2cc(C3CCCCC3)nn2)nn1.Cl.Cl |  |  | 4 |  |  |  |  |  |  |  |  |  | Activity (Clostridioides difficile [11]): inactive; Activity (Clostridioides difficile [12]): inactive; Activity (Clostridioides difficile [13]): inactive; Activity (Clostridioides difficile [14]): inactive; Activity (Clostridioides difficile [15]): inactive |
| CC(C)CCOc1ccccc1-c1ccccc1OCc1cn(C[C@@H](CCCCN)NC(=O)[C@@H](CCCNC(=N)N)n2cc(CC3CCCCC3)nn2)nn1.Cl.Cl |  |  | 1 |  |  |  |  |  |  |  |  |  | Activity (Clostridioides difficile [11]): inactive; Activity (Clostridioides difficile [12]): inactive; Activity (Clostridioides difficile [13]): inactive; Activity (Clostridioides difficile [14]): inactive; Activity (Clostridioides difficile [15]): inactive |
| CC(C)CCOc1ccc2ccccc2c1-c1c(OCc2cn([C@H](CCCCN)C(=O)N[C@H](CCCNC(=N)N)Cn3cc(CCc4ccccc4)nn3)nn2)ccc2ccccc12.Cl.Cl | 8 | > 32 | 16 | 16 | > 32 | 4 | 16 | 4 | 4 | > 32 | 2 |  | hemolysis at 2 h, 50 ug/ml [1]: 75.2%; hemolysis at 2 h, 5 ug/ml [3]: 1.5% |
| CC(C)CCOc1ccccc1-c1ccccc1OCc1cn([C@H](CCCNC(=N)N)C(=O)N[C@H](CCCCN)Cn2cc(Cc3ccccc3)nn2)nn1.Cl.Cl | 32 | 32 | 32 | 16 | > 32 | 4 | 16 | 8 | 8 | > 32 | 8 |  |  |
| CC(C)CCOc1ccc2ccccc2c1-c1c(OCc2cn([C@H](CCCCN)C(=O)N[C@H](CCCNC(=N)N)C(=O)NCCc3ccccc3)nn2)ccc2ccccc12.Cl.Cl | 8 | 16 | 16 | 32 | 15.2 | 8 | 32 | 4 | 8 | > 32 | 2 |  |  |
| CCCN(CC1CC1)C(=O)[C@@H](CCCNC(=N)N)n1cc(COc2ccccc2-c2ccccc2OCCC(C)C)nn1.Cl | > 32 | > 32 | 16 | > 32 | 19.7 | 2 | 16 | 4 | 4 | > 32 | 8 |  |  |
| CC(C)CCOc1ccccc1-c1ccccc1OCc1cn([C@H](CCCCN)C(=O)NCCc2ccc(F)cc2)nn1.Cl | 16 | > 32 | 32 | > 32 | 5.5 | 8 | 64 | 8 | 4 | > 32 | 8 | 8 |  |
| CC(C)CCOc1ccccc1-c1ccccc1OCc1cn([C@H](CCCCN)C(=O)N[C@H](CCCNC(=N)N)Cn2cc(C3CCCCC3)nn2)nn1.Cl.Cl | 8 | 16 | 64 | 16 | 19.8 | 32 | 128 | 16 | 16 | 8 | 4 |  |  |
| CC(C)CCOc1ccc2ccccc2c1-c1c(OCC(=O)N[C@H](CCCNC(=N)N)C(=O)NCCc2ccccc2)ccc2ccccc12.Cl | > 32 | > 32 | 32 | > 32 | > 32 | 2 | 32 | 4 | 2 | > 32 | 4 |  |  |
| CC(C)CCOc1ccccc1-c1ccccc1OCc1cn([C@H](CCCNC(=N)N)C(=O)Nc2cccc(F)c2)nn1.Cl | > 32 | > 32 | 32 | > 32 | > 32 | 8 | 64 | 8 | 4 | > 32 | 4 | 8 |  |
| CC(C)CCOc1ccccc1-c1ccccc1OCc1cn([C@H](CCCNC(=N)N)C(=O)N[C@H](CCCCN)Cn2cc(CC3CCCCC3)nn2)nn1.Cl.Cl | 16 | 16 | 8 | 16 | > 32 | 2 | 16 | 4 | 4 | 16 | 8 |  | hemolysis at 2 h, 50 ug/ml [1]: 33.7%; hemolysis at 2 h, 5 ug/ml [3]: 1.6% |
